For 29 compounds, minimal effective concentration and melting point results are on record in patent US8969362B2 (priority 2004, dated 2015).

One data set deals with rat spleen cells. In words: cells. To be noted: 24 h, read-out: Minimum effective concentration (interferon inducing activity). The format is cell-based.

The structures appear in SMILES notation.

For the compound `CCCCOc1nc(N)c2[nH]c(=O)n(CCOc3cccc(C(=O)O)c3)c2n1` [Comparison Example 1, 2-butoxy-8-oxo-9-[2-(3-hydroxycarbonylphenoxy)ethyl]adenine, reference compound], in the data set on rat spleen cells, the minimal effective concentration turned out to be 0.01 µM.
In the case of `CCCCOc1nc(N)c2[nH]c(=O)n(CCOc3cccc(CC(=O)O)c3)c2n1` [Comparison Example 2, 2-butoxy-8-oxo-9-[2-(3-hydroxycarbonylmethylphenoxy)ethyl]adenine, reference compound], the minimal effective concentration in the data set with rat spleen cells was found to be 0.03 µM.
Consider `CCCCOc1nc(N)c2[nH]c(=O)n(CCOc3ccccc3C(=O)O)c2n1` [Comparison Example 3, 2-butoxy-8-oxo-9-[2-(2-hydroxycarbonylphenoxy)ethyl]adenine, reference compound], for which the minimal effective concentration in the data set with rat spleen cells was 0.1 µM.
In the case of `CCCCOc1nc(N)c2[nH]c(=O)n(CCOc3ccccc3CC(=O)O)c2n1` [Comparison Example 4, 2-butoxy-8-oxo-9-[2-(2-hydroxycarbonylmethylphenoxy)ethyl]adenine, reference compound], in the data set on rat spleen cells, the minimal effective concentration amounted to 0.1 µM.
Same read-out and setting: for `CCCCOc1nc(N)c2[nH]c(=O)n(CCCCNS(=O)(=O)c3cccc(C(=O)O)c3)c2n1` [Comparison Example 8, 2-butoxy-8-oxo-9-[4-(3-hydroxycarbonylbenzenesulfonamide)butyl]adenine, reference compound] the value was 0.1 µM; for `CCCCOc1nc(N)c2nc(O)n(CCCCNS(=O)(=O)c3cccc(CC(=O)O)c3)c2n1` [Comparison Example 9, 2-butoxy-8-oxo-9-[4-(3-hydroxycarbonylmethylbenzenesulfonamide)butyl]adenine, reference compound], 0.3 µM.
In the case of `CCCCOc1nc(N)c2[nH]c(=O)n(CCCCNC(=O)Nc3cccc(C(=O)O)c3)c2n1` [Comparison Example 10, 2-butoxy-8-oxo-9-[4-(3-hydroxycarbonylphenylaminocarbonylamino)butyl]adenine, reference compound], the minimal effective concentration in the data set with rat spleen cells is 0.3 µM.
On to `CCCCOc1nc(N)c2[nH]c(=O)n(CCCCNC(=O)Nc3cccc(CC(=O)O)c3)c2n1` [Comparison Example 11, 2-butoxy-8-oxo-9-[4-(3-hydroxycarbonylmethylphenylaminocarbonylamino)butyl]adenine, reference compound], for which the minimal effective concentration in the data set with rat spleen cells came to 0.1 µM.
Turning to `CCCCOc1nc(N)c2[nH]c(=O)n(CCCNCc3cccc(C(=O)OC)c3)c2n1` [Example 2-3, Methyl 3-({[3-(6-amino-2-butoxy-8-oxo-7,8-dihydro-9H-purin-9-yl)propyl]amino}methyl)benzoate], the melting point was 214 to 218 °C.
`CCCCOc1nc(N)c2[nH]c(=O)n(CCCCNS(=O)(=O)c3ccc(CCC(=O)OC)cc3)c2n1` [Example 2-11, Methyl 3-[4-({[4-(6-amino-2-butoxy-8-oxo-7,8-dihydro-9H-purin-9-yl)butyl]amino}sulfonyl)phenyl]propanoate]: the melting point is 150 to 152 °C.
Take `CCCCOc1nc(N)c2[nH]c(=O)n(CCCCNS(=O)(=O)c3ccc(CCC(=O)O)cc3)c2n1` [Example 2-12, 3-[4-({[4-(6-Amino-2-butoxy-8-oxo-7,8-dihydro-9H-purin-9-yl)butyl]amino}sulfonyl)phenyl]propionic acid]: the melting point is 210 to 211 °C.
`CCCCOc1nc(N)c2[nH]c(=O)n(CCCCN(CCN3CCCC3)S(=O)(=O)c3cccc(CC(=O)O)c3)c2n1` [Example 2-14, (3-{[[4-(6-Amino-2-butoxy-8-oxo-7,8-dihydro-9H-purin-9-yl)butyl](2-pyrrolidin-1-ylethyl)amino]sulfonyl}phenyl)acetic acid] came in with a melting point of 192 to 193 °C.
The compound `CCCCOc1nc(N)c2[nH]c(=O)n(CCCCN(CCOC)S(=O)(=O)c3cccc(CC(=O)OC)c3)c2n1` [Example 2-15, Methyl (3-{[[4-(6-amino-2-butoxy-8-oxo-7,8-dihydro-9H-purin-9-yl)butyl](2-methoxyethyl)amino]sulfonyl}phenyl)acetate] displayed a melting point of 182 to 183 °C.
`CCCCOc1nc(N)c2[nH]c(=O)n(CCCCN(CCOC)S(=O)(=O)c3cccc(CC(=O)O)c3)c2n1` [Example 2-16, (3-{[[4-(6-Amino-2-butoxy-8-oxo-7,8-dihydro-9H-purin-9-yl)butyl](2-methoxyethyl)amino]sulfonyl}phenyl)acetic acid]: the melting point fell in the range of 171 to 172 °C.
The compound `CCCCOc1nc(N)c2[nH]c(=O)n(CCCCN(C)S(=O)(=O)c3cccc(CC(=O)O)c3)c2n1` [Example 2-18, (3-{[[4-(6-Amino-2-butoxy-8-oxo-7,8-dihydro-9H-purin-9-yl)butyl](methyl)amino]sulfonyl}phenyl)acetic acid] had a melting point of 171 to 172 °C.
Compound `CCCCOc1nc(N)c2[nH]c(=O)n(CCCCN(CC(C)(C)CN(C)C)S(=O)(=O)c3cccc(CC(=O)O)c3)c2n1` [Example 2-20, [3-({[4-(6-Amino-2-butoxy-8-oxo-7,8-dihydro-9H-purin-9-yl)butyl][3-(dimethylamino)-2,2-dimethylpropyl]amino}sulfonyl)phenyl]acetic acid] had a melting point of 175 to 176 °C.
For the compound `CCCCOc1nc(N)c2[nH]c(=O)n(CCCNS(=O)(=O)c3cccc(CC(=O)OC)c3)c2n1` [Example 2-21, Methyl [3-({[3-(6-amino-2-butoxy-8-oxo-7,8-dihydro-9H-purin-9-yl)propyl]amino}sulfonyl)phenyl]acetate], the melting point was 218 to 219 °C.
Same read-out and setting: for `CCCCOc1nc(N)c2[nH]c(=O)n(CCCCN(CC(C)(C)O)S(=O)(=O)c3cccc(CC(=O)OC)c3)c2n1` [Example 2-22, Methyl (3-{[[4-(6-amino-2-butoxy-8-oxo-7,8-dihydro-9H-purin-9-yl)butyl](2-hydroxy-2-methylpropyl)amino]sulfonyl}phenyl)acetate] the value was 192 to 193 °C; for `CCCCOc1nc(N)c2[nH]c(=O)n(CCCCN(Cc3cccc(CC(=O)O)c3)CC(C)(C)CN(C)C)c2n1` [Example 2-32, [3-({[4-(6-Amino-2-butoxy-8-oxo-7,8-dihydro-9H-purin-9-yl)butyl][3-(dimethylamino)-2,2-dimethylpropyl]amino}methyl)phenyl]acetic acid], 189 to 190 °C.
On the same count and under the same terms, to `CCCCOc1nc(N)c2[nH]c(=O)n(CCCCN(CCCN3CCCC3=O)Cc3cccc(CC(=O)OC)c3)c2n1` [Example 2-33, Methyl [3-({[4-(6-amino-2-butoxy-8-oxo-7,8-dihydro-9H-purin-9-yl)butyl][3-(2-oxopyrrolidin-1-yl)propyl]amino}methyl)phenyl]acetate] belongs 115 to 116 °C.
Turning to `CCCCOc1nc(N)c2[nH]c(=O)n(CCCCN(CCN3CCOCC3)Cc3cccc(CC(=O)OC)c3)c2n1` [Example 2-35, Methyl (3-{[[4-(6-amino-2-butoxy-8-oxo-7,8-dihydro-9H-purin-9-yl)butyl](2-morpholin-4-ylethyl)amino]methyl}phenyl)acetate], the melting point is 189 to 190 °C.
`CCCCOc1nc(N)c2[nH]c(=O)n(CCSc3cccc(CC(=O)OC)c3)c2n1` [Example 2-39, Methyl (3-{[2-(6-amino-2-butoxy-8-oxo-7,8-dihydro-9H-purin-9-yl)ethyl]thio}phenyl)acetate] returned a melting point of 232 to 233 °C.
On to `CCCCOc1nc(N)c2[nH]c(=O)n(CCSc3cccc(CC(=O)O)c3)c2n1` [Example 2-40, (3-{[2-(6-Amino-2-butoxy-8-oxo-7,8-dihydro-9H-purin-9-yl)ethyl]thio}phenyl)acetic acid], for which the melting point was in the range of 205 to 207 °C.
In turn, `CCCCOc1nc(N)c2[nH]c(=O)n(CCNc3cccc(CC(=O)OC)c3)c2n1` [Example 2-41, Methyl (3-{[2-(6-amino-2-butoxy-8-oxo-7,8-dihydro-9H-purin-9-yl)ethyl]amino}phenyl)acetate] returned a melting point of 222 to 223 °C.
For the compound `CCCCOc1nc(N)c2[nH]c(=O)n(CCCNc3cccc(CC(=O)OC)c3)c2n1` [Example 2-42, Methyl (3-{[3-(6-amino-2-butoxy-8-oxo-7,8-dihydro-9H-purin-9-yl)propyl]amino}phenyl)acetate], the melting point was in the range of 208 to 209 °C.
`CCCCOc1nc(N)c2[nH]c(=O)n(CCCNc3cccc(CC(=O)O)c3)c2n1` [Example 2-43, (3-{[3-(6-Amino-2-butoxy-8-oxo-7,8-dihydro-9H-purin-9-yl)propyl]amino}phenyl)acetic acid] yielded a melting point of 247 °C.
The compound `CCCCOc1nc(N)c2[nH]c(=O)n(CCS(=O)(=O)c3cccc(CC(=O)OC)c3)c2n1` [Example 2-48, Methyl (3-{[2-(6-amino-2-butoxy-8-oxo-7,8-dihydro-9H-purin-9-yl)ethyl]sulfonyl}phenyl)acetate] came in with a melting point of 246 to 247 °C.
`CCCCOc1nc(N)c2[nH]c(=O)n(CCN(C)Cc3cccc(CC(=O)O)c3)c2n1` [Example 2-50, (3-{[[2-(6-Amino-2-butoxy-8-oxo-7,8-dihydro-9H-purin-9-yl)ethyl](methyl)amino]methyl}phenyl)acetic acid] came in with a melting point of 164 to 166 °C.
As for `CCCCOc1nc(N)c2[nH]c(=O)n(CCCCNC(=O)Nc3cccc(CC(=O)OC)c3)c2n1` [Example 11, 2-butoxy-8-oxo-9-[4-(3-methoxycarbonylmethylphenylaminocarbonylamino)butyl]adenine], the minimal effective concentration with rat spleen cells worked out at 0.01 µM.

As a reminder, the melting point is the temperature of the solid-liquid transition.
